What was measured:
Format in all cases: in vivo, Caenorhabditis elegans
[1] = test system: C. elegans MCII mutant RP2699; assay: Acute motility of young adults on WMicrotracker ONE; conditions: 50 μM; 24 h
Procedure: (§1) The effect of compounds on C. elegans N2 and SDH mutant strains was measured in a similar manner. Briefly, for evaluation of the acute effect of the compounds, age-synchronized young adults of each strain, kept in S complete medium supplemented with E. coli OP50 (3 mg/mL, fresh weight), were transferred onto microtiter plates (96-well, U bottom), and their initial motility was measured for 30 min. […] Afterward, the compounds were washed away, and worms, supplemented with fresh liquid media and food, were distributed onto 96-well plates and allowed to recover. Their activity was measured using WMicrotracker ONE at the indicated time points.
(§2) To experimentally support this promising initial finding, we tested the effect of i-19 against several C. elegans MCII mutant strains. These nematodes carry point mutations that result in amino acid changes in regions of subunits SDHC and SDHD that contribute to the formation of the ubiquinone-binding pocket, thereby influencing its shape and the ability of inhibitors to interact with the protein. […] The compounds were tested in multiple setups. At first, young adults were exposed to higher doses (100, 50, and 10 μM) of the compounds for up to 48 h, and changes in motility were evaluated using WMicrotracker. For both compounds, we observed a less pronounced decrease in movement rates of MCII mutants compared to wild-type worms, in both a dose- and time-dependent manner (Figure ).

C. elegans wild-type N2 = assay: as above; conditions: 50 μM; 24 h
Procedure: as §1, §2

[2] = test system: C. elegans MCII mutant RP2702; assay: as above; conditions: 50 μM; 24 h
Procedure: as §1, §2

[3] = test system: C. elegans MCII mutant RP2700; assay: as above; conditions: 50 μM; 24 h
Procedure: as §1, §2

C. elegans N2 = assay: Scoring of developmental rates, L1 exposed 5 days; design: key: 1 = dead/arrested at L1 … 5 = healthy, normal reproduction
From the text: (§3) Dead or mostly immobile worms, arrested at the L1 stage, received a score of 1. Populations with severely delayed development were scored as 2. More developmentally advanced, but still obviously delayed worms were given the score of 3. Adult worms that produce a noticeably lower number of progeny received a score of 4. Healthy worms that reproduce normally (i.e., hundreds of eggs and larvae are present) were scored as 5 (see Figure C for representative images). In a typical, correctly prepared experiment, vehicle-treated populations should receive a score of 5, while worms treated with ivermectin (positive control) should receive a score of 1. […]

[4] = test system: C. elegans complex II mutant RP2702; assay: Scoring of developmental rates, L1 exposed 5 days
From the text: as §3

[5] = test system: C. elegans complex II mutant RP2700; assay: Scoring of developmental rates, L1 exposed 5 days
From the text: as §3

[6] = test system: C. elegans complex II mutant RP2699; assay: Scoring of developmental rates, L1 exposed 5 days
From the text: as §3

[7] = test system: mitochondrial membrane potential of C. elegans young adults; assay: Mitochondrial membrane potential measurement; conditions: 100 μM; 24 h
Procedure: After 24 h, the compounds were washed away. Then, the mitochondrial membrane potential was measured using a specialized fluorescent dye (kit MAK147, Sigma-Aldrich). The kit was used according to the manufacturer’s instructions with modified incubation temperature and time (20 °C, 4 h) to account for the fact that living intact worms were used instead of cell cultures. , Dyed worms (approximately 200 per well) were distributed onto a black 96-well plate, and the fluorescence was measured using a Tecan Infinite 200 Pro plate reader.
Determining the mechanism of action of compounds is always challenging; however, the nature of their effect, as well as the structural similarity to compounds with known properties, can provide useful insights. One of our hypotheses was that the compounds might interfere with energy production. We based this assumption on the behavior of compound-treated worms (delayed development, lower fecundity, and relatively rapid decrease in motility rates but not necessarily death). Impaired mitochondrial function would be accompanied by a decrease in mitochondrial membrane potential (MMP).

Question: How did the “decrease of mean activity counts” value [1] turn out when Clc1ccc(-c2ccc3[nH]ccc3c2)cc1 [i-19] was run?
Answer: 46%

Question: What about the “decrease of mean activity counts” value (C. elegans wild-type N2) of the same compound?
Answer: 89%

Question: What about the “decrease of mean activity counts” value [2] of the same compound?
Answer: 70%

Question: And the “decrease of mean activity counts” value [3]?
Answer: 32%

Question: And the “mean score (1-5)” value (C. elegans N2; 1.336 µM)?
Answer: 5

Question: And the “mean score (1-5)” value (C. elegans N2; 1.782 µM)?
Answer: 4.222

Question: What about the “mean score (1-5)” value (C. elegans N2; 2.376 µM) of the same compound?
Answer: 4.889

Question: And the “mean score (1-5)” value (C. elegans N2; 3.168 µM)?
Answer: 4.889

Question: What about the “mean score (1-5)” value (C. elegans N2; 4.224 µM) of the same compound?
Answer: 4.667

Question: And the “mean score (1-5)” value (C. elegans N2; 5.631 µM)?
Answer: 4.444

Question: What about the “mean score (1-5)” value (C. elegans N2; 7.509 µM) of the same compound?
Answer: 4.667

Question: And the “mean score (1-5)” value (C. elegans N2; 10.011 µM)?
Answer: 4.444

Question: And the “mean score (1-5)” value (C. elegans N2; 13.348 µM)?
Answer: 4

Question: And the “mean score (1-5)” value (C. elegans N2; 17.798 µM)?
Answer: 2.556

Question: What about the “mean score (1-5)” value (C. elegans N2; 23.731 µM) of the same compound?
Answer: 1.333

Question: What about the “mean score (1-5)” value (C. elegans N2; 31.641 µM) of the same compound?
Answer: 1

Question: And the “mean score (1-5)” value (C. elegans N2; 42.188 µM)?
Answer: 1

Question: And the “mean score (1-5)” value (C. elegans N2; 56.25 µM)?
Answer: 1

Question: And the “mean score (1-5)” value (C. elegans N2; 75 µM)?
Answer: 1

Question: And the “mean score (1-5)” value (C. elegans N2; 100 µM)?
Answer: 1

Question: And the “mean score (1-5)” value ([4]; 1.336 µM)?
Answer: 5

Question: What about the “mean score (1-5)” value ([4]; 1.782 µM) of the same compound?
Answer: 5

Question: What about the “mean score (1-5)” value ([4]; 2.376 µM) of the same compound?
Answer: 5

Question: And the “mean score (1-5)” value ([4]; 3.168 µM)?
Answer: 5

Question: And the “mean score (1-5)” value ([4]; 4.224 µM)?
Answer: 4.889

Question: And the “mean score (1-5)” value ([4]; 5.631 µM)?
Answer: 4.889

Question: And the “mean score (1-5)” value ([4]; 7.509 µM)?
Answer: 5

Question: And the “mean score (1-5)” value ([4]; 10.011 µM)?
Answer: 4.444

Question: What about the “mean score (1-5)” value ([4]; 13.348 µM) of the same compound?
Answer: 4.889

Question: What about the “mean score (1-5)” value ([4]; 17.798 µM) of the same compound?
Answer: 4.667

Question: What about the “mean score (1-5)” value ([4]; 23.731 µM) of the same compound?
Answer: 3.889

Question: And the “mean score (1-5)” value ([4]; 31.641 µM)?
Answer: 1.111

Question: What about the “mean score (1-5)” value ([4]; 42.188 µM) of the same compound?
Answer: 1

Question: And the “mean score (1-5)” value ([4]; 56.25 µM)?
Answer: 1

Question: And the “mean score (1-5)” value ([4]; 75 µM)?
Answer: 1

Question: And the “mean score (1-5)” value ([4]; 100 µM)?
Answer: 1

Question: And the “mean score (1-5)” value ([5]; 1.336 µM)?
Answer: 4.778

Question: And the “mean score (1-5)” value ([5]; 1.782 µM)?
Answer: 4.778

Question: And the “mean score (1-5)” value ([5]; 2.376 µM)?
Answer: 4.667

Question: And the “mean score (1-5)” value ([5]; 3.168 µM)?
Answer: 4.889

Question: What about the “mean score (1-5)” value ([5]; 4.224 µM) of the same compound?
Answer: 4.778

Question: And the “mean score (1-5)” value ([5]; 5.631 µM)?
Answer: 4.778

Question: What about the “mean score (1-5)” value ([5]; 7.509 µM) of the same compound?
Answer: 4.667

Question: And the “mean score (1-5)” value ([5]; 10.011 µM)?
Answer: 4.667

Question: And the “mean score (1-5)” value ([5]; 13.348 µM)?
Answer: 4.333

Question: And the “mean score (1-5)” value ([5]; 17.798 µM)?
Answer: 3.667

Question: And the “mean score (1-5)” value ([5]; 23.731 µM)?
Answer: 3.444

Question: And the “mean score (1-5)” value ([5]; 31.641 µM)?
Answer: 1.111

Question: What about the “mean score (1-5)” value ([5]; 42.188 µM) of the same compound?
Answer: 1

Question: What about the “mean score (1-5)” value ([5]; 56.25 µM) of the same compound?
Answer: 1

Question: What about the “mean score (1-5)” value ([5]; 75 µM) of the same compound?
Answer: 1

Question: What about the “mean score (1-5)” value ([5]; 100 µM) of the same compound?
Answer: 1

Question: What about the “mean score (1-5)” value ([6]; 1.336 µM) of the same compound?
Answer: 4.667

Question: And the “mean score (1-5)” value ([6]; 1.782 µM)?
Answer: 4.667

Question: What about the “mean score (1-5)” value ([6]; 2.376 µM) of the same compound?
Answer: 4.556

Question: What about the “mean score (1-5)” value ([6]; 3.168 µM) of the same compound?
Answer: 4.444

Question: What about the “mean score (1-5)” value ([6]; 4.224 µM) of the same compound?
Answer: 4.556

Question: What about the “mean score (1-5)” value ([6]; 5.631 µM) of the same compound?
Answer: 4.333

Question: What about the “mean score (1-5)” value ([6]; 7.509 µM) of the same compound?
Answer: 4.444

Question: What about the “mean score (1-5)” value ([6]; 10.011 µM) of the same compound?
Answer: 4.333

Question: And the “mean score (1-5)” value ([6]; 13.348 µM)?
Answer: 4.111

Question: What about the “mean score (1-5)” value ([6]; 17.798 µM) of the same compound?
Answer: 3.111

Question: And the “mean score (1-5)” value ([6]; 23.731 µM)?
Answer: 2.778

Question: And the “mean score (1-5)” value ([6]; 31.641 µM)?
Answer: 2.111

Question: What about the “mean score (1-5)” value ([6]; 42.188 µM) of the same compound?
Answer: 1

Question: And the “mean score (1-5)” value ([6]; 56.25 µM)?
Answer: 1

Question: And the “mean score (1-5)” value ([6]; 75 µM)?
Answer: 1

Question: And the “mean score (1-5)” value ([6]; 100 µM)?
Answer: 1

Question: And the “MMP signal lower than in vehicle-treated control animals” value [7]?
Answer: approximately 80%
